{"source": "patent US7700788B2", "about": "“Hydroxymethyl furfural oxidation methods” (Battelle Memorial Institute, priority 2006, dated 2010)", "test": "Solubility of FDCA in acetic acid/water mixtures", "format": "physicochemical"}
{"smiles": "O=C(O)c1ccc(C(=O)O)o1", "note": "[FDCA]", "values": [{"measurement": "Solubility", "setting": "0 Vol % HOAc / 100 Vol % H2O, 25° C.", "result": 0.086, "unit": "wt %"}, {"measurement": "Solubility", "setting": "0 Vol % HOAc / 100 Vol % H2O, 70° C.", "result": 0.327, "unit": "wt %"}, {"measurement": "Solubility in 40/60 HOAc/H2O relative to pure water", "setting": "40/60 HOAc/H2O versus pure water", "result": "about twice the solubility in pure water"}, {"measurement": "Solubility", "setting": "40 Vol % HOAc / 60 Vol % H2O, 25° C.", "result": 0.153, "unit": "wt %"}, {"measurement": "Solubility", "setting": "40 Vol % HOAc / 60 Vol % H2O, 70° C.", "result": 0.779, "unit": "wt %"}, {"measurement": "Solubility", "setting": "50 Vol % HOAc / 50 Vol % H2O, 25° C.", "result": 0.173, "unit": "wt %"}, {"measurement": "Solubility", "setting": "50 Vol % HOAc / 50 Vol % H2O, 70° C.", "result": 0.746, "unit": "wt %"}, {"measurement": "Solubility", "setting": "60 Vol % HOAc / 40 Vol % H2O, 25° C.", "result": 0.171, "unit": "wt %"}, {"measurement": "Solubility", "setting": "60 Vol % HOAc / 40 Vol % H2O, 70° C.", "result": 0.596, "unit": "wt %"}, {"measurement": "Solubility", "setting": "70 Vol % HOAc / 30 Vol % H2O, 25° C.", "result": 0.143, "unit": "wt %"}, {"measurement": "Solubility", "setting": "70 Vol % HOAc / 30 Vol % H2O, 70° C.", "result": 0.592, "unit": "wt %"}, {"measurement": "Solubility", "setting": "90 Vol % HOAc / 10 Vol % H2O, 25° C.", "result": 0.138, "unit": "wt %"}, {"measurement": "Solubility", "setting": "90 Vol % HOAc / 10 Vol % H2O, 70° C.", "result": 0.458, "unit": "wt %"}, {"measurement": "Solubility", "setting": "100 Vol % HOAc / 0 Vol % H2O, 25° C.", "result": 0.080, "unit": "wt %"}, {"measurement": "Solubility", "setting": "100 Vol % HOAc / 0 Vol % H2O, 70° C.", "result": 0.193, "unit": "wt %"}]}
